Legend:
PKR WT [1] = target: T1, PKR WT (Homo sapiens, UniProt P30613); assay: PKR WT cell based AC50 assay; settings: wild type PKR
PKR R532W = PKR R532W (Homo sapiens, UniProt P30613, R532W); assay: PKR Mutant Assay, AC50 against PKR R532W; type: biochemical; settings: mutant PKR R532W enzyme
Outline: (§1)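 PK-LDH coupled assay, RT. Enzyme + cpd + PEP/NADH/LDH, 60 min pre-incubation, no ADP. ADP 0.22-1.65 mM to initiate; A340 kinetic read. Cpd 11 pts, 3-fold, 100 μM top.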

PKR R510Q = PKR R510Q (Homo sapiens, UniProt P30613, R510Q); assay: PKR Mutant Assay, AC50 against PKR R510Q; type: biochemical; settings: mutant PKR R510Q enzyme
Outline: as §1

PKR WT [2] = target: T1, PKR WT; assay: PKR WT enzymatic AC50 assay; type: biochemical; settings: wild type PKR
Outline: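 LDH-coupled NADH depletion read as A340 change at room temperature after ADP (0.22-1.65 mM) start. Compounds, tested from 100 μM final in 3-fold steps over 11 points with 1% DMSO, sat 60 min with enzyme (80-400 ng/well), PEP 0.1-0.5 mM and NADH 180 uM in Tris pH 7.5/KCl/MgCl2/DTT/BSA buffer.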

Sequence of PKR R510Q (P30613 whole entry R510Q): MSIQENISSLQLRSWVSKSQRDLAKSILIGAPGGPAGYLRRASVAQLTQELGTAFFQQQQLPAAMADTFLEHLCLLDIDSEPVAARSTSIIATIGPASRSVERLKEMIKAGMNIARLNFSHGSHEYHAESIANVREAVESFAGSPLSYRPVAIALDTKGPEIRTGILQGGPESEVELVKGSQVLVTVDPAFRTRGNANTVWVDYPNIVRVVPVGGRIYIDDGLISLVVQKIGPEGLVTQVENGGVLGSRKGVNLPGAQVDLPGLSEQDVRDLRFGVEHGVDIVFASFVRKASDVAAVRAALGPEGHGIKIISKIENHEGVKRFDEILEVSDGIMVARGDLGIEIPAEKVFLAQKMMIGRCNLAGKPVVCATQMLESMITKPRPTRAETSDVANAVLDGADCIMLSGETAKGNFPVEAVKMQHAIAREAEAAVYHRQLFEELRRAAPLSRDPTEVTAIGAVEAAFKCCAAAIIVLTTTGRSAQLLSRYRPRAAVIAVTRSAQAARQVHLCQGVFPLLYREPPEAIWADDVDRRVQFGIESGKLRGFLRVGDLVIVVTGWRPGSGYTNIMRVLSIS
T1 sequence (P30613 whole entry): as the sequence (P30613 whole entry R510Q) above, with Q510R counted along it
Sequence of PKR R532W (P30613 whole entry R532W): as the sequence (P30613 whole entry R510Q) above, with Q510R, R532W counted along it

Compound	AC50 (PKR WT [1])	AC50 (PKR R532W)	AC50 (PKR R510Q)	AC50 (PKR WT [2])
O=C(c1ccc(NS(=O)(=O)c2cccc3cccnc23)cc1OC(F)F)N1CCC(O)(c2ccccc2Cl)CC1 [Compound 151, N-(4-(4-(2-chlorophenyl)-4-hydroxypiperidine-1-carbonyl)-3-(difluoromethoxy)phenyl)quinoline-8-sulfonamide]	< 100 nM	< 100 nM	< 100 nM	< 100 nM
O=C(c1ccc(NS(=O)(=O)c2cccc3cccnc23)cc1)N1CCC(O)(c2ccccc2Cl)CC1 [Compound 122, N-(4-(4-(2-chlorophenyl)-4-hydroxypiperidine-1-carbonyl)phenyl)quinoline-8-sulfonamide]	< 100 nM	< 100 nM	< 100 nM	< 100 nM
O=C(c1ccc(NS(=O)(=O)c2cccc3cccnc23)cc1)N1CCC(O)(c2ccc(F)cc2Cl)CC1 [Compound 111, N-[4-[4-(2-chloro-4-fluoro-phenyl)-4-hydroxy-piperidine-1-carbonyl]phenyl]quinoline-8-sulfonamide]	< 100 nM	< 100 nM	< 100 nM	< 100 nM
Cc1ccccc1C1(O)CCN(C(=O)c2ccc(NS(=O)(=O)c3cccc4cccnc34)cc2)CC1 [Compound 103, N-(4-(4-hydroxy-4-(o-tolyl)piperidine-1-carbonyl)phenyl)quinoline-8-sulfonamide]	< 100 nM	< 100 nM	< 100 nM	< 100 nM
O=C(c1ccc(NS(=O)(=O)c2cccc3cccnc23)cc1)N1CCC(O)(c2ncccc2C(F)(F)F)CC1 [Compound 164, N-(4-(4-hydroxy-4-(3-(trifluoromethyl)pyridin-2-yl)piperidine-1-carbonyl)phenyl)quinoline-8-sulfonamide]	< 100 nM	< 100 nM	101 to 1000 nM	< 100 nM
O=C(c1ccc(NS(=O)(=O)c2cccc3cccnc23)cc1)N1CCC(O)(c2cccc(F)c2Cl)CC1 [Compound 123, N-[4-[4-(2-chloro-3-fluoro-phenyl)-4-hydroxy-piperidine-1-carbonyl]phenyl]quinoline-8-sulfonamide]	< 100 nM	< 100 nM	< 100 nM	< 100 nM
O=C(c1ccc(NS(=O)(=O)c2cccc3nccnc23)cc1)N1CCC(O)(c2ccccc2)CC1 [Compound 243, N-(4-(4-hydroxy-4-phenylpiperidine-1-carbonyl)phenyl)quinoxaline-5-sulfonamide]	< 100 nM	101 to 1000 nM	1010 to 10000 nM	101 to 1000 nM
Cc1ccccc1CC1(O)CCN(C(=O)c2ccc(NS(=O)(=O)c3cccc4cccnc34)cc2)CC1 [Compound 108, N-(4-(4-hydroxy-4-(2-methylbenzyl)piperidine-1-carbonyl)phenyl)quinoline-8-sulfonamide]	< 100 nM	< 100 nM	< 100 nM	< 100 nM
O=C(c1ccc(NS(=O)(=O)c2cccc3cccnc23)cc1)N1CCC(O)(c2cc(F)ccc2Cl)CC1 [Compound 166]	< 100 nM	< 100 nM	101 to 1000 nM	< 100 nM
O=C(c1ccc(NS(=O)(=O)c2cccc3cccnc23)cc1)N1CCC(O)(c2ccccc2C(F)(F)F)CC1 [Compound 126, N-(4-(4-hydroxy-4-(2-(trifluoromethyl)phenyl)piperidine-1-carbonyl)phenyl)quinoline-8-sulfonamide]	< 100 nM	< 100 nM	< 100 nM	< 100 nM
O=C(c1ccc(NS(=O)(=O)c2cccc3cccnc23)c(Cl)c1)N1CCC(O)(c2ccccc2Cl)CC1 [Compound 222, N-(2-chloro-4-(4-(2-chlorophenyl)-4-hydroxypiperidine-1-carbonyl)phenyl)quinoline-8-sulfonamide]	< 100 nM	< 100 nM	101 to 1000 nM	< 100 nM
O=C(c1ccc(NS(=O)(=O)c2cccc3c2OCCC3)cc1)N1CCC(O)(c2ccccc2Cl)CC1 [Compound 102, N-(4-(4-(2-chlorophenyl)-4-hydroxypiperidine-1-carbonyl)phenyl)chroman-8-sulfonamide]	< 100 nM	< 100 nM	< 100 nM	< 100 nM
O=C(c1ccc(NS(=O)(=O)c2cccc3ccoc23)cc1)N1CCC(O)(c2ccccc2Cl)CC1 [Compound 186, N-(4-(4-(2-chlorophenyl)-4-hydroxypiperidine-1-carbonyl)phenyl)benzofuran-7-sulfonamide]	101 to 1000 nM	< 100 nM	101 to 1000 nM	< 100 nM
O=C(c1ccc(NS(=O)(=O)c2cccc3cccnc23)cc1)N1CCC(O)(c2ccncc2)CC1 [Compound 206, N-(4-(4-hydroxy-4-(pyridin-4-yl)piperidine-1-carbonyl)phenyl)quinoline-8-sulfonamide]	< 100 nM	< 100 nM	1010 to 10000 nM	< 100 nM
Cc1nc2c(S(=O)(=O)Nc3ccc(C(=O)N4CCC(O)(c5ccccc5Cl)CC4)cc3)cccc2o1 [Compound 383, N-(4-(4-(2-chlorophenyl)-4-hydroxypiperidine-1-carbonyl)phenyl)-2-methylbenzo[d]oxazole-4-sulfonamide]	< 100 nM	< 100 nM	101 to 1000 nM	< 100 nM
Cc1cc(C(=O)N2CCC(O)(c3cccc(F)c3F)CC2)ccc1NS(=O)(=O)c1cccc2nccnc12 [Compound 175, N-(4-(4-(2,3-difluorophenyl)-4-hydroxypiperidine-1-carbonyl)-2-methylphenyl)quinoxaline-5-sulfonamide]	< 100 nM	< 100 nM	101 to 1000 nM	< 100 nM
O=C(c1ccc(NS(=O)(=O)c2cccc3cccnc23)cc1)N1CCC(O)(C2CC2)CC1 [Compound 260, N-(4-(4-cyclopropyl-4-hydroxypiperidine-1-carbonyl)phenyl)quinoline-8-sulfonamide]	1010 to 10000 nM	101 to 1000 nM	1010 to 10000 nM	101 to 1000 nM

Continued, values first:

AC50 (PKR WT [1])	AC50 (PKR R532W)	AC50 (PKR R510Q)	AC50 (PKR WT [2])	Compound
< 100 nM	< 100 nM	101 to 1000 nM	< 100 nM	O=C(c1ccc(NS(=O)(=O)c2cccc3scnc23)cc1)N1CCC(O)(CCCC(F)(F)F)CC1 [Compound 394, N-(4-(4-hydroxy-4-(4,4,4-trifluorobutyl)piperidine-1-carbonyl)phenyl)benzo[d]thiazole-4-sulfonamide]
< 100 nM	< 100 nM	101 to 1000 nM	101 to 1000 nM	CC(C)(F)CC1(O)CCN(C(=O)c2ccc(NS(=O)(=O)c3cccc4scnc34)cc2)CC1 [Compound 403, N-(4-(4-(2-fluoro-2-methylpropyl)-4-hydroxypiperidine-1-carbonyl)phenyl)benzo[d]thiazole-4-sulfonamide]
< 100 nM	< 100 nM	101 to 1000 nM	101 to 1000 nM	Cn1cc(C2(O)CCN(C(=O)c3ccc(NS(=O)(=O)c4cccc5scnc45)cc3)CC2)cn1 [Compound 411, N-[4-[4-hydroxy-4-(1-methylpyrazol-4-yl)piperidine-1-carbonyl]phenyl]benzothiazole-4-sulfonamide]
< 100 nM	< 100 nM	101 to 1000 nM	< 100 nM	O=C(c1ccc(NS(=O)(=O)c2cccc3cccnc23)cc1)N1CCC(O)(CC2CC2(F)F)CC1 (stereo not shown) [Compound 176, N-(4-(4-((2,2-difluorocyclopropyl)methyl)-4-hydroxypiperidine-1-carbonyl)phenyl)quinoline-8-sulfonamide]
< 100 nM	< 100 nM	< 100 nM	< 100 nM	O=C(c1ccc(NS(=O)(=O)c2cccc3cccnc23)cc1)N1CCC(O)(Cc2c(F)cccc2F)CC1 [Compound 120, N-(4-(4-(2,6-difluorobenzyl)-4-hydroxypiperidine-1-carbonyl)phenyl)quinoline-8-sulfonamide]
< 100 nM	< 100 nM	< 100 nM	< 100 nM	O=C(c1ccc(NS(=O)(=O)c2cccc3scnc23)cc1)N1CCC(O)(Cc2ccccc2C(F)(F)F)CC1 [Compound 125]
101 to 1000 nM	< 100 nM	< 100 nM	< 100 nM	CC(F)(F)CCC1(O)CCN(C(=O)c2ccc(NS(=O)(=O)c3cc(F)cc4sc(N)nc34)cc2)CC1 [Compound 435]
< 100 nM	< 100 nM	< 100 nM	< 100 nM	CC1(CC2(O)CCN(C(=O)c3ccc(NS(=O)(=O)c4cccc5cccnc45)cc3)CC2)CC1 [Compound 121, N-(4-(4-hydroxy-4-((1-methylcyclopropyl)methyl)piperidine-1-carbonyl)phenyl)quinoline-8-sulfonamide]
< 100 nM	101 to 1000 nM	101 to 1000 nM	< 100 nM	CC(F)(F)CCC1(O)CCN(C(=O)c2ccc(NS(=O)(=O)c3cccc4nccnc34)cc2)CC1 [Compound 396, N-(4-(4-(3,3-difluorobutyl)-4-hydroxypiperidine-1-carbonyl)phenyl)quinoxaline-5-sulfonamide]
101 to 1000 nM	< 100 nM	101 to 1000 nM	< 100 nM	O=C(c1ccc(NS(=O)(=O)c2cccc3scnc23)cc1)N1CCC(O)(CCC(F)=C(F)F)CC1 [Compound 395, N-(4-(4-hydroxy-4-(3,4,4-trifluorobut-3-enyl)piperidine-1-carbonyl)phenyl)benzo[d]thiazole-4-sulfonamide]
< 100 nM	< 100 nM	101 to 1000 nM	< 100 nM	CC(C)(C)C1(O)CCN(C(=O)c2ccc(NS(=O)(=O)c3cccc4cccnc34)cc2)CC1 [Compound 195, N-(4-(4-(tert-butyl)-4-hydroxypiperidine-1-carbonyl)phenyl)quinoline-8-sulfonamide]
